Measured values taken from US7572444B2, “Binding proteins specific for human matriptase” (Amgen Fremont Inc., priority 2004, dated 2009).

Experiments:
[1] = molecular target: T1, catalytic domain of Matriptase (Homo sapiens, UniProt Q9Y5Y6); test: Enzymatic assay with tripeptide QAR-MCA substrate (Tripeptide-MCA assay); format: biochemical; settings: at the concentration that inhibits the unknown protease
T1 sequence (Q9Y5Y6 615-855): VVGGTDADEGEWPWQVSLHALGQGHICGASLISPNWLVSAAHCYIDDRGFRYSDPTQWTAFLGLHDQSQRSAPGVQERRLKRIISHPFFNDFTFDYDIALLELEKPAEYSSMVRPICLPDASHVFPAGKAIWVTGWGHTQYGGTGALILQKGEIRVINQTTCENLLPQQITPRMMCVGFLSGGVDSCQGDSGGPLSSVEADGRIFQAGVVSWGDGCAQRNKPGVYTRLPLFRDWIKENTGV
Description: All 972 wells were then analyzed in an enzymatic assay using the catalytic domain of Matriptase and the tripeptide QAR-MCA (Peptides International Inc., Louisville, Ky.) as substrate. The cleavage of the QAR-MCA substrate by Matriptase causes the release of a methylcoumarin amide group (MCA) as amino-methyl coumarin (AMC). The free AMC can then be detected using a fluorescent reader as a measure of Matriptase activity.
(§1) The development of the assay method was complicated by the finding that an unknown protease was present in the B cell culture supernatant that was able to cleave the QAR-MCA substrate. […] This was advantageous as the background cleavage would no longer affect the ability to identify neutralizing antibodies against Matriptase. The supernatant also contained an unknown Matriptase inhibitor that necessitated a relatively high Matriptase concentration in the assay.
The wells were determined to be positive based on their ability to inhibit Matriptase activity in two assays compared with average of the irrelevant control wells (enzyme, substrate and B cell culture supernatant) shown below. The data is shown as a percentage of the average of the negative control wells (enzyme and substrate) as in Table 3.

[2] = test system: unknown protease present in the B cell culture supernatant; test: QAR-MCA cleavage by unknown protease of B cell culture supernatant; format: biochemical; settings: QAR-MCA substrate
Text: as §1

Ramos cells = test: CDC assay; format: cell-based; settings: 10, 5, 2.5 and 1.25 μg/mL, 25% human sera, 1 hour; sc95/96 as IgG1 or IgG2
Description: In this experiment, 100,000 Ramos cells in 25 μL of media were added to the bottom of a 96-well plate. […] Each sample point was run in quadruplicate. After 10 minutes at room temperature, 50 μL of 50% human sera (25% final concentration) was added to the cells and incubated at 37 degrees Celsius for 1 hour. CellTiterGlo reagent (100 μL) was added to each well and allowed to incubate on the cells for 10 minutes.

Raji cells = test: ADCC assay; format: cell-based, human; settings: 0.0001 to 1 μg/ml, NK effector cells, 4 hours
Description: Raji cells were used as target cells for the ADCC assay. To prepare the target cells, Raji cells were harvested and resuspended in media at 1.0×10^6 cells/ml. Calcein (Sigma C1359) was then added to a final concentration of 10 μM, and the cells were incubated for 45-60 minutes at 37° C., after which the Raji cells were pelleted by centrifugation at 1200 rpm for 10 minutes. The supernatant was discarded and the cells were resuspended in growth media. The centrifugation step was repeated, the cells were resuspended at a concentration of 1.0×10^4 cells in 75μL media and were then plated at 1.0×10^4 cells per well in a round bottom plate. […] The cells and antibody were incubated for 30 minutes at room temperature.
The effector cells for the ADCC assay were prepared as follows. […] The cells were counted to determine the concentration of natural killer (NK) cells, diluted to a concentration of 9.0×10^4 cells per 75 μL, and then 75 μL of these cells were then added to the Raji cells from the step above and then incubated for 4 hours at 37° C. The plate was then centrifuged at 1200 rpm for 5 minutes, and 100 μL of the supernatant was transferred to a flat, black clear-bottom 96 well plate and subsequently read on a Victor plate reader using a 490 nm excitation and 530 nm emission wavelength.

[3] = test system: Ramos tumor-bearing SCID mice; test: Ramos hind-limb paralysis model; format: in vivo; settings: 5 mg/kg, d1, i.p., 1×10^6 Ramos cells i.v.
Description: The ability of sc95/96 to modulate the invasive and/or metastatic properties of Ramos cells was evaluated in a rodent hind-limb paralysis model. Without therapeutic intervention, SCID mice inoculated systemically with Ramos B lymphoma cells develop hind limb paralysis at ˜25 days post injection, presumably related to the accumulation of tumor cells in the spinal cord and/or brain tissues (dijoseph et al., 2004, Clinical Cancer Research 10: 8620-8629).
In this experiment, 7-8 week old C.B-17 SCID male mice were inoculated with 1×10^6 Ramos cells via tail vein injection. […] Groups 1-3 thereafter received weekly 25 mg/kg injections of antibody or an equivalent volume of PBS. Animals were given food and water ad libidum and monitored daily for signs of paralysis. Individual mice were euthanized when unable to move due to hind limb paralysis.

| Molecule | effect on activity of Matriptase [1] | inhibition of activity of the unknown protease [2] | CDC on Ramos cells (Ramos cells) | Raji cell lysis by ADCC (Raji cells) | Median survival time [3] |
| --- | --- | --- | --- | --- | --- |
| O=S(=O)(F)Cc1ccccc1 [PMSF, phenylmethyl sulfonyl fluoride] | without affecting the activity of Matriptase | completely inhibit | – | – | – |
| Rituximab [reference compound] | – | – | did demonstrate CDC activity | induce Raji cell lysis by ADCC | greater than 45 days |
